# Data published in patent EP0262903A2, “New acyl derivatives of 20-modified tylosin and desmycosin compounds” (priority 1986, dated 1988).
# Where two headings read alike, the source gives them in different places.
# What was measured:
# [1] = system: Streptococcus pyogenes C203; test: ED50 in mice experimentally infected with S. pyogenes C203; type: in vivo; settings: two doses given 1 and 4 hours post-infection, dose protecting 50% of the test animals
# Procedure: The formula 1 compounds have shown in vivo antimicrobial activity against experimentally-induced infections in laboratory animals. When two doses of test compound were administered to mice experimentally infected with S. pyogenes C203, the activity observed was measured as an ED₅₀ value [effective dose in mg/kg to protect 50% of the test animals: see Warren Wick, et 5 al., J. Bacteriol. 81, 233-235 (1961)].
# [2] = system: Pasteurella multocida 22A; test: MIC, conventional broth-dilution microtiter test; type: cell-based
# Procedure: (§1) The MIC's in Table II were determined by standard agar-dilution assays. The MIC's in Table III were obtained using conventional broth-dilution microtiter tests.
# [3] = system: Mycoplasma hyopneumoniae S5972; test: MIC, conventional broth-dilution microtiter test; type: cell-based; settings: Mesomycoplasma hyopneumoniae
# Procedure: as §1
# [4] = system: Pasteurella hemolytica 23C; test: MIC, conventional broth-dilution microtiter test; type: cell-based
# Procedure: as §1
# [5] = system: Pasteurella multocida 17E; test: MIC, conventional broth-dilution microtiter test; type: cell-based; settings: Bovine isolate
# Procedure: as §1
# [6] = system: Pasteurella multocida 68C; test: MIC, conventional broth-dilution microtiter test; type: cell-based
# Procedure: as §1
# Streptococcus sp. 19F = test: MIC, conventional broth-dilution microtiter test; type: cell-based
# Procedure: as §1
# [7] = system: Pasteurella hemolytica 41D; test: MIC, conventional broth-dilution microtiter test; type: cell-based
# Procedure: as §1
# [8] = system: Bordetella bronchiseptica; test: MIC, conventional broth-dilution microtiter test; type: cell-based
# Procedure: as §1
# Mycoplasma hyorhinis 29E = test: MIC, conventional broth-dilution microtiter test; type: cell-based
# Procedure: as §1
# [9] = system: Pasteurella multocida 40G; test: MIC, conventional broth-dilution microtiter test; type: cell-based
# Procedure: as §1
# [10] = system: Mycoplasma gallisepticum 36H; test: MIC, conventional broth-dilution microtiter test; type: cell-based; settings: Mycoplasmoides gallisepticum
# Procedure: as §1
# [11] = system: Mycoplasma gallisepticum 29C; test: MIC, conventional broth-dilution microtiter test; type: cell-based; settings: Mycoplasmoides gallisepticum
# Procedure: as §1
# [12] = system: Pasteurella hemolytica 22C; test: MIC, conventional broth-dilution microtiter test; type: cell-based
# Procedure: as §1
# Staphylococcus aureus = test: MIC, conventional broth-dilution microtiter test; type: cell-based
# Procedure: as §1
# Mycoplasma synoviae 40A = test: MIC, conventional broth-dilution microtiter test; type: cell-based; settings: Mycoplasmopsis synoviae
# Procedure: as §1
# [13] = system: Pasteurella multocida 60A; test: MIC, conventional broth-dilution microtiter test; type: cell-based; settings: Avian isolate
# Procedure: as §1
# [14] = system: Mycoplasma gallisepticum 15E; test: MIC, conventional broth-dilution microtiter test; type: cell-based; settings: Mycoplasmoides gallisepticum
# Procedure: as §1
# [15] = system: Staphylococcus aureus V41; test: MIC, standard agar-dilution assay; type: cell-based; settings: Staphylococcus aureus V41; Penicillin-resistant strain; agar dilution; read-out: MIC
# Procedure: as §1
# [16] = system: Streptococcus pyogenes C203; test: MIC, standard agar-dilution assay; type: cell-based; settings: Streptococcus pyogenes C203; agar dilution; read-out: MIC
# Procedure: as §1
# Escherichia coli EC14 = test: MIC, standard agar-dilution assay; type: cell-based; settings: Escherichia coli EC14; agar dilution; read-out: MIC
# Procedure: as §1
# [17] = system: Staphylococcus aureus X400; test: MIC, standard agar-dilution assay; type: cell-based; settings: Staphylococcus aureus X400; Methicillin-resistant strain; agar dilution; read-out: MIC
# Procedure: as §1
# [18] = system: Staphylococcus aureus X1.1; test: MIC, standard agar-dilution assay; type: cell-based; settings: Staphylococcus aureus X1.1; agar dilution; read-out: MIC
# Procedure: as §1
# [19] = system: Klebsiella pneumoniae X68; test: MIC, standard agar-dilution assay; type: cell-based
# Procedure: as §1
# [20] = system: Haemophilus influenzae 76; test: MIC, standard agar-dilution assay; type: cell-based; settings: Haemophilus influenzae 76; Ampicillin-resistant strain; agar dilution; read-out: MIC
# Procedure: as §1
# [21] = system: Staphylococcus epidermidis 222; test: MIC, standard agar-dilution assay; type: cell-based; settings: Staphylococcus epidermidis 222; agar dilution; read-out: MIC
# Procedure: as §1
# [22] = system: Staphylococcus epidermidis EPI1; test: MIC, standard agar-dilution assay; type: cell-based; settings: Staphylococcus epidermidis EPI1; agar dilution; read-out: MIC
# Procedure: as §1
# [23] = system: Staphylococcus aureus S13E; test: MIC, standard agar-dilution assay; type: cell-based
# Procedure: as §1
# [24] = system: Pseudomonas aeruginosa X239; test: MIC, standard agar-dilution assay; type: cell-based; settings: Pseudomonas aeruginosa X239; agar dilution; read-out: MIC
# Procedure: as §1
# [25] = system: Streptococcus faecalis 2041; test: MIC, standard agar-dilution assay; type: cell-based; settings: Enterococcus faecalis; Streptococcus faecalis 2041; agar dilution; read-out: MIC
# Procedure: as §1
# [26] = system: Streptococcus pneumoniae Park I; test: MIC, standard agar-dilution assay; type: cell-based; settings: Streptococcus pneumoniae Park I; agar dilution; read-out: MIC
# Procedure: as §1
# [27] = system: Streptococcus faecalis X66; test: MIC, standard agar-dilution assay; type: cell-based; settings: Enterococcus faecalis; Streptococcus faecalis X66; agar dilution; read-out: MIC
# Procedure: as §1
# [28] = system: Haemophilus influenzae C.L.; test: MIC, standard agar-dilution assay; type: cell-based; settings: Haemophilus influenzae C.L.; Ampicillin-sensitive strain; agar dilution; read-out: MIC
# Procedure: as §1
# [29] = C203, mice, oral, read-out: ED50 Oral
# [30] = C203, sc, mice, subcutaneous, read-out: ED50 Subcutaneous
# [31] = Klebsiella pneumoniae X68, agar dilution, read-out: MIC
Structure (SMILES),"ED50 [1, 29]","ED50 [1, 30]",MIC [2],MIC [3],MIC [4],MIC [5],MIC [15],MIC [16],MIC (Escherichia coli EC14),MIC [17],MIC [18],MIC [20],MIC [21],MIC [22],MIC [23],MIC [24],MIC [25],MIC [26],MIC [27],MIC [28],further results
"CCC1OC(=O)CC(O)C(C)C(OC2OC(C)C(O)C(N(C)C)C2O)C(CCOc2ccccc2)CC(C)C(=O)C=CC(C)=CC1COC1OC(C)C(OC(C)=O)C(OC)C1OC (centres unmarked) [Compound 2, 4ʹʹ-O-Acetyl-20-DH-20-O-phenyl-desmycosin]",10.9 mg/kg,4.46 mg/kg,> 50 µg/mL,25 µg/mL,50 µg/mL,50 µg/mL,2 µg/mL,1 µg/mL,> 128 µg/mL,2 µg/mL,2 µg/mL,128 µg/mL,1 µg/mL,2 µg/mL,2 µg/mL,> 128 µg/mL,32 µg/mL,2 µg/mL,16 µg/mL,128 µg/mL,"MIC [6]: 25 µg/mL; MIC (Streptococcus sp. 19F): 12.5 µg/mL; MIC [7]: > 50 µg/mL; MIC [8]: > 50 µg/mL; MIC (Mycoplasma hyorhinis 29E): 50 µg/mL; MIC [9]: 50 µg/mL; MIC [10]: 50 µg/mL; MIC [11]: 0.78 µg/mL; MIC [12]: > 50 µg/mL; MIC (Staphylococcus aureus): 1.56 µg/mL; MIC (Mycoplasma synoviae 40A): 3.12 µg/mL; MIC [13]: > 50 µg/mL; MIC [14]: 50 µg/mL; MIC [19, 31]: > 128 µg/mL"
"CCC1OC(=O)CC(O)C(C)C(OC2OC(C)C(O)C(N(C)C)C2O)C(CCOc2ccccc2)CC(C)C(=O)C=CC(C)=CC1COC1OC(C)C(OC(=O)CN2CCCC2)C(OC)C1OC (centres unmarked) [Compound 13, 20-DH-20-O-Phenyl-4ʹʹ-O-(pyrrolidin-1-ylacetyl)-desmycosin]",24 mg/kg,10 mg/kg,50 µg/mL,> 50 µg/mL,50 µg/mL,50 µg/mL,1 µg/mL,1 µg/mL,> 128 µg/mL,1 µg/mL,0.5 µg/mL,32 µg/mL,0.5 µg/mL,1 µg/mL,1 µg/mL,> 128 µg/mL,16 µg/mL,2 µg/mL,16 µg/mL,32 µg/mL,"MIC [6]: 25 µg/mL; MIC (Streptococcus sp. 19F): 6.25 µg/mL; MIC [7]: > 50 µg/mL; MIC [8]: > 50 µg/mL; MIC [9]: 25 µg/mL; MIC [10]: 50 µg/mL; MIC [11]: 1.56 µg/mL; MIC [12]: > 50 µg/mL; MIC (Staphylococcus aureus): 3.12 µg/mL; MIC [13]: 50 µg/mL; MIC [14]: 50 µg/mL; MIC ([19]; Klebsiella pneumoniae, X68): > 128 µg/mL"
"CCC1OC(=O)CC(O)C(C)C(OC2OC(C)C(O)C(N(C)C)C2O)C(CCOc2ccccc2)CC(C)C(=O)C=CC(C)=CC1COC1OC(C)C(OC(=O)CN2CCN(C)CC2)C(OC)C1OC (centres unmarked) [Compound 15, 4ʹʹ-O-[(4-Methyl-piperazin-1-yl)acetyl]-20-DH-20-O-phenyl-desmycosin]",29 mg/kg,> 10 mg/kg,–,–,–,–,4 µg/mL,2 µg/mL,> 128 µg/mL,4 µg/mL,4 µg/mL,128 µg/mL,4 µg/mL,8 µg/mL,4 µg/mL,> 128 µg/mL,16 µg/mL,1 µg/mL,16 µg/mL,128 µg/mL,"MIC [19, 31]: > 128 µg/mL"
